In patent US20260199384A1, “METHOD AND COMPOSITIONS FOR TREATING SKIN DISORDERS” (PHOENIX ANIMAL WELLNESS, INC., priority 2023, published 2026):

Legend:
[1] = system: canine DH82 macrophage cell line; assay: Cytokine assay in DH82 macrophage cultures (Example 26); format: cell-based
[2] = system: Primary canine dermal fibroblasts; assay: Cytokine assay in primary dermal fibroblast cultures (Example 26); format: cell-based
[3] = system: JAK1-dependent cytokines involved in allergy and inflammation (IL-2, IL-4, IL-6, and IL-13) as well as pruritus (IL-31); settings: published data; cited from earlier work
[4] = system: erythropoietin, granulocyte/macrophage colony-stimulating factor, IL-12, IL-23; settings: GM-CSF, read-out: IC50's, cytokines that do not activate the JAK1 enzyme in cells; cited from earlier work
[5] = system: JAK kinases; settings: range over JAK kinases; read-out: IC50, inhibition of JAK kinases; cited from earlier work
[6] = system: T cell proliferation; settings: published data; cited from earlier work
[7] = system: murine CD4+ and CD8+ T cells; settings: not IFN-γ-producing cells; cited from earlier work
[8] = system: human peripheral blood mononuclear cells; assay: Cytokine, chemokine and growth factor production in human PBMC cultures (Example 13); format: cell-based
From the text: Proof of the antipruritic activity of oleandrin was established in vitro according to Example 13 by measuring its effect upon on the expression of key cytokines, chemokines, and other factors that are part of the innate immune system. An in vitro model of human peripheral blood mononuclear cells was used to determine effects the effects of OCC under different culture conditions: normal (no inflammation) and inflamed by lipopolysaccharide (LPS).
Reagents. Dulbecco's phosphate-buffered saline (Gibco cat. #141190-136), lipopolysaccharide (LPS) (Invitrogen cat. #00-4976-93), Roswell Park Memorial Institute 1640 cell culture medium (Gibco cat. #11835-030), Fetal Bovine Serum (Gibco cat. #A38401-01), penicillin-streptomycin 100× (Gibco cat. #15140-122), CD69 fluorescein isothiocyanate (clone FN50, Invitrogen cat. #11-0699-42), CD56 phycoerythrin (clone CMSSB Invitrogen cat. #12-0567-42), and CD3 Super Bright 645 (clone OKT3 Invitrogen cat. #64-0037-42) were purchased from Thermo Fisher Scientific (Waltham, MA, USA). CD25 Brilliant Violet 421 (clone 2A3 BD cat. #564033) and sodium heparin Vacutainer tubes (BD cat. #367878) were purchased from Becton-Dickinson (Franklin Lakes, NJ, USA). The human erythroleukemia cell line K562 was purchased from American Type Culture Collection (Manassas, VA, USA). Customized Bio-Plex Pro™ human cytokine arrays were purchased from Bio-Rad Laboratories Inc. (Hercules, CA, USA). […]
The two products were handled in the following manner: (1) A stock solution of PBI was prepared in DMSO, and subsequent dilutions were prepared in phosphate-buffered saline. […] The range of concentrations in cell cultures was calculated based on the % oleandrin and ranged from 0.5 to 500 ng oleandrin/mL cell culture medium. […]
Immune cell activation. […] The PBMC were washed twice in PBS and counted, and the density was adjusted to establish 0.18 mL cultures with a cell density at 106/mL, using Roswell Park Memorial Institute 1640 medium containing 10% fetal calf serum and 1% penicillin-streptomycin. […]

[9] = system: Natural Killer (NK) cells and monocytes; assay: Immune cell activation in PBMC cultures (CD69, CD25; Example 13); format: cell-based, human
Description: Immune cell activation. Peripheral venous blood was drawn from healthy human donors upon written informed consent, as approval by the Sky Lakes Medical Center Institutional Review Board, Federalwide Assurance 2603. The blood was drawn into heparin vacutainer vials, and the peripheral blood mononuclear cells (PBMC) were isolated using Lympholyte Poly by centrifugation for 35 min at 400×g. The PBMC were washed twice in PBS and counted, and the density was adjusted to establish 0.18 mL cultures with a cell density at 106/mL, using Roswell Park Memorial Institute 1640 medium containing 10% fetal calf serum and 1% penicillin-streptomycin.
Cultures were then incubated at 37° C., 5% CO2 for 24 h. The highly inflammatory LPS from Escherichia coli was used as a positive control for immune-cell activation. In parallel, IL-2 was used as a positive control for natural killer (NK)-cell activation, at a concentration of 100 IU/mL in cell culture. Untreated negative control cultures consisted of PBMC exposed to phosphate-buffered saline in the absence of test products. […] The fluorescence intensities for CD3, CD25, CD56, and CD69 were measured by flow cytometry, using an Attune NxT acoustic-focusing flow cytometer (Thermo Fisher Scientific, Waltham, MA, USA). […] The lymphocyte subpopulation was further analyzed for CD25 and CD69 expression on CD3−CD56+ NK cells, CD3+ CD56+ NKT cells, and CD3+CD56− T cells.

[10] = system: K562 human myelogenous leukemia target cells; assay: Cytotoxicity towards K562 target cells (CD107a; Example 13); format: cell-based; settings: PBMC co-cultured with K562
From the text: Natural killer (NK) cell cytotoxicity towards K562 human myelogenous leukemia target cells. The cell surface expression of CD107a (LAMP-1) is a marker for secretory degranulation of NK and activated cytotoxic T cells when they are co-cultured with malignant or virus-infected target cells. Peripheral blood mononuclear cells from healthy human donors were co-cultured with K562 cells in the absence versus presence of test products or matching concentrations of the DMSO solvent control. All treatments, including each concentration of test product and each positive and negative control, were tested in triplicate. CD107a-FITC antibody (6.5 μL/well) was added at the beginning of each culture, along with the protein transport inhibitor BD GolgiStop™, which contains Monensin and blocks intracellular protein transport processes. After 4 h of incubation at 37° C., 5% CO2, the cells were washed in phosphate-buffered saline and stained with CD3-PerCP and CD56-PE antibodies and then fixed in formalin. Flow cytometry analysis was performed where the strategy involved initial gating of the lymphocyte and monocyte subpopulations using the forward/side scatter plot, followed by analysis of T cells and NK cells in the lymphocyte population. The fluorescence intensity of CD107a was evaluated as the mean fluorescence intensity on monocytes, NK cells, and T cells.

[11] = system: BT (Bos taurus turbinate), MDBK (Bos taurus kidney) and MARC 145 (monkey kidney) cells; assay: Lactate dehydrogenase release assay (LDH assay), Example 18; format: cell-based; settings: up to concentrations of 1 microg/mL
Description: Oleandrin (PhytoLab, Vestenbergsgreuth, Germany) was dissolved at a concentration of 1 mg/ml in DMSO. The desired concentration range to be used in cytotoxicity testing is 0.005-1 ug/ml in 0.0005-0.1% wt in DMSO, respectively. Lactate dehydrogenase release assay (LDH assay) was be used to determine the cytotoxic effect of different concentration of Oleandrin on different cell cultures. LDH is a cytosolic enzyme that is released only from damaged cells (due to increased membrane permeability) to the outside medium that will convert the lactate in the medium into pyruvate in a coupled reaction that includes the reduction of NAD+ into NADH, the latter is oxidized back to NAD+ in the presence of Diaphorase in the LDH kit mix that leads to the reduction of water soluble tetrazolium (INT), that is also in the kit mix, into red Formazon product that can be read by an ELISA reader at a wave length of 490 nm. […]
This was achieved by preparing different concentration of cells in 100 μl volume staring at 1000 cell/100 μl to 20,000 cell/100 μl in a 2-fold serial dilution manner. […] After performing the test according to the manufacturer instructions, the average OD value reading of the triplicate for each dilution in each set was taken and plotted against number of cells. […] Absorbance is measured at 490 nm and 680 nm using Spectramax i3x. […]

[12] = system: dogs suffering from pruritus or atopic dermatitis; assay: Treatment of pruritus / atopic dermatitis in dogs (Examples 14, 15, 28); format: in vivo, dog; settings: oral, 1-2 times daily, 2-6 or 3-5 microg oleandrin/Kg
Description: (§1) A dog presenting with pruritus was administered the aqueous liquid composition of Example 2. It contained 0.1-5 μg OLE/mL. The composition (0.25-1 mL) was administered (1-4 times daily) directly to the dog's mouth, thereby resulting in a combination of buccal and sublingual administration. […] Both inflammation and itchiness were relieved.
as §1, with “the MCT-based” for “the aqueous liquid”, “Example 21.” for “Example 2.”, “contained 12-25” for “contained 0.1-5”, “OLE/mL. A few drops of the” for “OLE/mL. The”, “mL) is” for “mL) was”
A dog presenting with pruritus was administered the aqueous liquid composition of Example 11. The composition was sprayed (1-4 pumps) directly onto the itchy area of the dog and rubbed into the skin and fur/hair. […] Both inflammation and itchiness were relieved.
Oleandrin (oleander extract) was orally administered in two different forms. The oil-based formulation of Example 21 was sprayed onto dog treats and administered between meals or sprayed onto dog food and administered as part of a meal. The chews of Example 27 were orally administered between meals. Both products were administered 1-2 times daily at doses ranging from 2-6 (preferably 3-5) microg oleandrin/Kg of bodyweight. […]

SMILES | IL-6, IFN-γ, and NGF-β ([1]; cytokines involved in dermal inflammation) | TGF-β1, IL12/IL-23p40, and TNF-α ([1]; less robust than the reductions triggered by OE and oleandrin) | levels of IL-8 and MCP-1 [2] | concentrations at which anti-inflammatory properties have been reported [3] [nM] | IC50 [4] [µM] | IC50 [5] [µM] | concentration at which inhibition of T cell proliferation was seen [6] [µM] | frequency of IL-4- and IL-10-producing murine CD4+ and CD8+ T cells [7] | production of cytokines [8] | expression of IFN-γ, G-CSF, and IL-6 ([8]; 0.5 to 500 ng oleandrin/mL) | formation/expression of IL-21, IL-22, IL-23, IL-25, IL-31, IL-33, and TNF-α ([8]; 0.5 to 500 ng oleandrin/mL) | activation of Natural Killer (NK) cells and monocytes [9] | T cell cytotoxic attack on malignant target cells [10] | IL-6, IL-12/IL-23p40, IFN-γ, TNF-α, VEGF, and NGF-β ([1]; DH82 macrophage cultures, inflamed conditions (LPS), 24 hours) | toxicity, release of lactate dehydrogenase [11] | time until improvements became evident [12] [days] | itching and scratching ([12]; as included in an oleander extract)
CNS(=O)(=O)C[C@H]1CC[C@H](N(C)c2ncnc3[nH]ccc23)CC1 [oclacitinib] | increases | reductions | little or no effect | 36 to 249 | > 1 | 0.01 to 0.099 | 10 | reduces | – | – | – | – | – | – | – | – | –
CO[C@H]1C[C@H](O[C@H]2CC[C@@]3(C)[C@H](CC[C@@H]4[C@@H]3CC[C@]3(C)[C@@H](C5=CC(=O)OC5)[C@@H](OC(C)=O)C[C@]43O)C2)O[C@@H](C)[C@@H]1O [oleandrin] | – | – | reduced | – | – | – | – | – | increased | induced | suppressed | directly activated | increased | reductions | no additional toxicity over control vehicle | 1 to 3 | significant reduction in itching and scratching
